In patent US20240269298A1, “PHOSPHONYL DERIVATIVE, AND COMPOSITION AND PHARMACEUTICAL APPLICATION THEREOF” (XIZANG HAISCO PHARMACEUTICAL CO., LTD., priority 2021, published 2024):
Like-named read-outs stand apart in the source and are kept apart here.

System: NCI-H1975 (EGFR-L858R-T790M) cells
Assay: Inhibitory activity on proliferation of NCI-H1975 (EGFR-L858R-T790M) cells (CTG, 72 h)
Format: cell-based
Conditions: Homo sapiens
Procedure: NCI-H1975 (EGFR-L858R-T790M) and A431 (EGFR-WT) cells were purchased from ATCC and cultured in an incubator at 37° C. with 5% CO2, and the culture mediums were RPMI1640+10% FBS and DMEM+10% FBS, respectively. On the first day, NCI-H1975 (EGFR-L858R-T790M) and A431 (EGFR-WT) cells in the logarithmic phase were collected, and viable cells were counted using an automatic cell analyzer (countstar). The cell suspensions were adjusted with the culture mediums and plated on a 96-well cell culture plate at 1000 cells/well for NCI-H1975 (EGFR-L858R-T790M) cells and at 3000 cells/well for A431 cells. The next day, the culture mediums were aspirated, and 90 μL of fresh culture mediums and 10 μL of the compounds at different concentrations were added to each well, wherein the final concentration of DMSO in each well was 0.1%. The plate was cultured in the incubator at 37° C. with 5% CO2 for 72 hours. After 72 hours of drug treatment, 50 μL of CTG solution (promega, G7572), which was already pre-melted and equilibrated to room temperature, was added to each well, and the mixtures were uniformly mixed for 2 min using a microplate shaker. The plate was placed at room temperature for 10 min, and then […] signal values were measured using a microplate reader (PHERAstar FSX).
Surviving cells % was calculated based on Vsample/Vvehicle control×100%, wherein Vsample was the readout of the drug-treated group, and Vvehicle control was the average value of the vehicle control group. Using the origin 9.2 software and nonlinear regression model, S-shaped dose-survival curves were plotted, and IC50 values were calculated.

[1] = read-out: IC50 (value in brackets)

| SMILES | IC50 (read-out: IC50 (class symbol)) [nM] | IC50 [1] [nM] |
| --- | --- | --- |
| COc1cc(N2CCC(CN3CCN(c4ccc(C5CCC(=O)NC5=O)c(F)c4)CC3)CC2)c(-c2cnn(C)c2)cc1Nc1ncc(Cl)c(Nc2ccc(-c3ccccc3)cc2P(C)(C)=O)n1 (centres unmarked) [Compound 156, 3-(4-(4-((1-(4-((5-chloro-4-((3-(dimethylphosphoryl)-[1,1′-biphenyl]-4-yl)amino)pyrimidin-2-yl)amino)-5-methoxy-2-(1-methyl-1H-pyrazol-4-yl)phenyl)piperidin-4-yl)methyl)piperazin-1-yl)-2-fluorophenyl)piperidine-2,6-dione] | < 100 | 64 |
| COc1cc(N2CCN(C3CCN(CC4CCN(c5ccc6c(c5)C(=O)N(C5CCC(=O)NC5=O)C6=O)CC4)CC3)CC2)c(C2CC2)cc1Nc1ncc(Cl)c(Nc2ccc3nccnc3c2P(C)(C)=O)n1 (centres unmarked) [Compound 26, 5-(4-((4-(4-(4-((5-chloro-4-((5-(dimethylphosphoryl)quinoxalin-6-yl)amino)pyrimidin-2-yl)amino)-2-cyclopropyl-5-methoxyphenyl)piperazin-1-yl)piperidin-1-yl)methyl)piperidin-1-yl)-2-(2,6-dioxopiperidin-3-yl)isoindoline-1,3-dione] | 100 to 500 |  |
| COc1cc(N2CCC(CN3CCN(c4ccc(N5CCC(=O)NC5=O)cc4)CC3)CC2)c(-c2cnn(C)c2)cc1Nc1ncc(Cl)c(Nc2ccc(-c3ccccc3)cc2P(C)(C)=O)n1 [Compound 136, 1-(4-(4-((1-(4-((5-chloro-4-((3-(dimethylphosphoryl)-[1,1′-biphenyl]-4-yl)amino)pyrimidin-2-yl)amino)-5-methoxy-2-(1-methyl-1H-pyrazol-4-yl)phenyl)piperidin-4-yl)methyl)piperazin-1-yl)phenyl)dihydropyrimidine-2,4(1H,3H)-dione] | 100 to 500 | 393 |
| COc1cc(N2CCC(CN3CCC4(CC3)CCN(c3cc5c(cc3F)C(=O)N(C3CCC(=O)NC3=O)C5=O)CC4)CC2)c(-c2cnn(C)c2)cc1Nc1ncc(Cl)c(Nc2ccc(-c3ccccc3)cc2P(C)(C)=O)n1 (centres unmarked) [Compound 52, 5-(9-((1-(4-((5-chloro-4-((3-(dimethylphosphoryl)-[1,1′-biphenyl]-4-yl)amino)pyrimidin-2-yl)amino)-5-methoxy-2-(1-methyl-1H-pyrazol-4-yl)phenyl)piperidin-4-yl)methyl)-3,9-diazaspiro[5.5]undecan-3-yl)-2-(2,6-dioxopiperidin-3-yl)-6-fluoroisoindoline-1,3-dione] | < 100 | 84 |
| COc1cc(N2CCC(N3CCC(N4CCC5(CCCN(c6ccc7c(c6)C(=O)N(C6CCC(=O)NC6=O)C7=O)C5)CC4)CC3)CC2)c(-c2cnn(C)c2)cc1Nc1ncc(Cl)c(Nc2ccc3nccnc3c2P(C)(C)=O)n1 (centres unmarked) [Compound 15, 5-(9-(1′-(4-((5-chloro-4-((5-(dimethylphosphoryl)quinoxalin-6-yl)amino)pyrimidin-2-yl)amino)-5-methoxy-2-(1-methyl-1H-pyrazol-4-yl)phenyl)-[1,4′-bipiperidin]-4-yl)-2,9-diazaspiro[5.5]undecan-2-yl)-2-(2,6-dioxopiperidin-3-yl)isoindoline-1,3-dione] | < 100 | 66 |
| COc1cc(N2CCC(CN3CCN(c4ccc(C5CCC(=O)NC5=O)cc4)CC3)CC2)c(-c2cnn(C)c2)cc1Nc1ncc(Cl)c(Nc2ccccc2P(C)(C)=O)n1 (centres unmarked) [Compound 135, 3-(4-(4-((1-(4-((5-chloro-4-((2-(dimethylphosphoryl)phenyl)amino)pyrimidin-2-yl)amino)-5-methoxy-2-(1-methyl-1H-pyrazol-4-yl)phenyl)piperidin-4-yl)methyl)piperazin-1-yl)phenyl)piperidine-2,6-dione] | < 100 | 82 |
| COc1cc(N2CCC3(CCN(CC4CCN(c5ccc6c(c5)C(=O)N(C5CCC(=O)NC5=O)C6=O)CC4)CC3)CC2)c(C2CC2)cc1Nc1ncc(Br)c(Nc2ccc3nccnc3c2P(C)(C)=O)n1 (centres unmarked) [Compound 3, 5-(4-((9-(4-((5-bromo-4-((5-(dimethylphosphoryl)quinoxalin-6-yl)amino)pyrimidin-2-yl)amino)-2-cyclopropyl-5-methoxyphenyl)-3,9-diazaspiro[5.5]undecan-3-yl)methyl)piperidin-1-yl)-2-(2,6-dioxopiperidin-3-yl)isoindoline-1,3-dione] | < 100 | 75 |
| COc1cc(N2CCC(CN3CCN(c4ccc(NC5CCC(=O)NC5=O)cc4F)CC3)CC2)c(-c2cnn(C)c2)cc1Nc1ncc(Cl)c(Nc2ccccc2P(C)(C)=O)n1 (centres unmarked) [Compound 157, 3-((4-(4-((1-(4-((5-chloro-4-((2-(dimethylphosphoryl)phenyl)amino)pyrimidin-2-yl)amino)-5-methoxy-2-(1-methyl-1H-pyrazol-4-yl)phenyl)piperidin-4-yl)methyl)piperazin-1-yl)-3-fluorophenyl)amino)piperidine-2,6-dione] | < 100 | 29 |
| COc1cc(N2CCC(N3CCC4(CCCN(c5ccc6c(c5)C(=O)N(C5CCC(=O)NC5=O)C6=O)C4)CC3)CC2)c(-c2cnn(C)c2)cc1Nc1ncc(Br)c(Nc2ccc3nccnc3c2P(C)(C)=O)n1 (centres unmarked) [Compound 32, 5-(9-(1-(4-((5-bromo-4-((5-(dimethylphosphoryl)quinoxalin-6-yl)amino)pyrimidin-2-yl)amino)-5-methoxy-2-(1-methyl-1H-pyrazol-4-yl)phenyl)piperidin-4-yl)-2,9-diazaspiro[5.5]undecan-2-yl)-2-(2,6-dioxopiperidin-3-yl)isoindoline-1,3-dione] | < 100 | 10 |
| COc1cc(N2CCC3(CCN(Cc4cccc(NC5CCC(=O)NC5=O)c4)CC3)CC2)c(-c2cnn(C)c2)cc1Nc1ncc(Br)c(Nc2ccc(-c3ccccc3)cc2P(C)(C)=O)n1 (centres unmarked) [Compound 129, 3-((3-((9-(4-((5-bromo-4-((3-(dimethylphosphoryl)-[1,1′-biphenyl]-4-yl)amino)pyrimidin-2-yl)amino)-5-methoxy-2-(1-methyl-1H-pyrazol-4-yl)phenyl)-3,9-diazaspiro[5.5]undecan-3-yl)methyl)phenyl)amino)piperidine-2,6-dione] | 100 to 500 | 125 |
| COc1cc(N2CCC(CN3CCC4(CC3)CCN(c3ccc(C(=O)NC5CCC(=O)NC5=O)nc3)CC4)CC2)c(-c2cnn(C)c2)cc1Nc1ncc(Br)c(Nc2ccc(-c3ccccc3)cc2P(C)(C)=O)n1 (centres unmarked) [Compound 69, 5-(9-((1-(4-((5-bromo-4-((3-(dimethylphosphoryl)-[1,1′-biphenyl]-4-yl)amino)pyrimidin-2-yl)amino)-5-methoxy-2-(1-methyl-1H-pyrazol-4-yl)phenyl)piperidin-4-yl)methyl)-3,9-diazaspiro[5.5]undecan-3-yl)-N-(2,6-dioxopiperidin-3-yl)picolinamide] | < 100 | 34 |
| COc1cc(N2CCC(N3CCC4(CCCN(c5ccc6c(c5)C(=O)N(C5CCC(=O)NC5=O)C6=O)C4)CC3)CC2)c(-c2cnn(C)c2)cc1Nc1ncc(Cl)c(Nc2ccc3nccnc3c2P(C)(C)=O)n1 (centres unmarked) [Compound 11, 5-(9-(1-(4-((5-chloro-4-((5-(dimethylphosphoryl)quinoxalin-6-yl)amino)pyrimidin-2-yl)amino)-5-methoxy-2-(1-methyl-1H-pyrazol-4-yl)phenyl)piperidin-4-yl)-2,9-diazaspiro[5.5]undecan-2-yl)-2-(2,6-dioxopiperidin-3-yl)isoindoline-1,3-dione] | < 100 | 7 |
| COc1cc(N2CCC(CN3CCN(c4ccc(C(=O)NC5CCC(=O)NC5=O)nc4)CC3)CC2)c(-c2cnn(C)c2)cc1Nc1ncc(Br)c(Nc2ccc(-c3ccccc3)cc2P(C)(C)=O)n1 (centres unmarked) [Compound 64, 5-(4-((1-(4-((5-bromo-4-((3-(dimethylphosphoryl)-[1,1′-biphenyl]-4-yl)amino)pyrimidin-2-yl)amino)-5-methoxy-2-(1-methyl-1H-pyrazol-4-yl)phenyl)piperidin-4-yl)methyl)piperazin-1-yl)-N-(2,6-dioxopiperidin-3-yl)picolinamide] | < 100 | 82 |
| COc1cc(N2CCC3(CCN(CC4CCN(c5cc6c(cc5F)C(=O)N(C5CCC(=O)NC5=O)C6=O)CC4)CC3)CC2)c(-c2cnn(C)c2)cc1Nc1ncc(Cl)c(Nc2ccc3nccnc3c2P(C)(C)=O)n1 (centres unmarked) [Compound 27, 5-(4-((9-(4-((5-chloro-4-((5-(dimethylphosphoryl)quinoxalin-6-yl)amino)pyrimidin-2-yl)amino)-5-methoxy-2-(1-methyl-1H-pyrazol-4-yl)phenyl)-3,9-diazaspiro[5.5]undecan-3-yl)methyl)piperidin-1-yl)-2-(2,6-dioxopiperidin-3-yl)-6-fluoroisoindoline-1,3-dione] | < 100 | 20 |
| COc1cc(N2CCC(N3CCC4(CCCN(c5cc6c(cc5F)C(=O)N(C5CCC(=O)NC5=O)C6=O)C4)CC3)CC2)c(-c2cnn(C)c2)cc1Nc1ncc(Br)c(Nc2ccc3nccnc3c2P(C)(C)=O)n1 (centres unmarked) [Compound 33, 5-(9-(1-(4-((5-bromo-4-((5-(dimethylphosphoryl)quinoxalin-6-yl)amino)pyrimidin-2-yl)amino)-5-methoxy-2-(1-methyl-1H-pyrazol-4-yl)phenyl)piperidin-4-yl)-2,9-diazaspiro[5.5]undecan-2-yl)-2-(2,6-dioxopiperidin-3-yl)-6-fluoroisoindoline-1,3-dione] | < 100 | 28 |
